In patent US20250122225A1, “MASP-2 INHIBITORS AND METHODS OF USE” (Omeros Corporation, priority 2023, published 2025):
Where a name gives a salt, the structure may show the parent alone.

Assays:
MASP-2 (CCP1-CCP2-SP) = molecular target: T1, MASP-2 (CCP1-CCP2-SP) (Homo sapiens, UniProt O00187); test: Enzymatic assay for MASP-2 inhibitory activity (fluorogenic substrate); format: biochemical
T1 construct: 15 μL of Enzyme MASP-2 (CCP1-CCP2-SP) in Assay Buffer
In short: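 Fluorescence was normalized between no-enzyme and DMSO-only controls to derive % activity, with IC50 taken as equivalent to Ki except for tight-binding inhibitors. Reactions ran 20 min at room temperature in HEPES pH 7.4/NaCl/Tween 20 buffer, using the C2-derived fluorogenic substrate, before acetic acid stop.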

human α-thrombin = molecular target: T2, human α-thrombin (Homo sapiens, UniProt P00734); test: Enzymatic assay for thrombin (fluorogenic peptide substrate Boc-VPR-AMC); format: biochemical
T2 construct: enzyme (human α-thrombin (BioPharm® Lab.)) in assay buffer; purchased BioPharm® Lab
In short: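 Assay conditions kept the reaction linear in time, enzyme and substrate, so IC50 approximated Ki apart from tight- or slow-binding cases. Boc-VPR-AMC cleavage by human α-thrombin proceeded 20 min at room temperature in Hepes pH 7.4/NaCl/Tween 20 buffer, then was acid-quenched and read by fluorescence.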

T1 sequence (O00187 445-686 limits assumed): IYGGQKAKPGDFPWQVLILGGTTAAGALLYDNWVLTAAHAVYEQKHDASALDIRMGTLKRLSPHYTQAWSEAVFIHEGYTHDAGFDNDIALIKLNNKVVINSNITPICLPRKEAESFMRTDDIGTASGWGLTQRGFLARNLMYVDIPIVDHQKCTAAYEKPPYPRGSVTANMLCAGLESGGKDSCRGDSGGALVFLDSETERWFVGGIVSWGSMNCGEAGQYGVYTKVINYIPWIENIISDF
T1 sequence (O00187 287-444 partner limits assumed): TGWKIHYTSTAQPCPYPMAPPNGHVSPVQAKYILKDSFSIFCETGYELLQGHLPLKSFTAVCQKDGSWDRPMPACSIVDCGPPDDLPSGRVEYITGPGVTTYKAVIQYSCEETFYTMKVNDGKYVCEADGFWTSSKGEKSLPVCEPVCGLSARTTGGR

Structure (SMILES)	Ki (MASP-2 (CCP1-CCP2-SP))	Ki (human α-thrombin)
Cc1nc(N)ccc1CNC(=O)[C@@H]1CCc2cnc(NCc3nn(C)c4ccccc34)c(=O)n21 [Compound 170, (S)-N-((6-amino-2-methylpyridin-3-yl)methyl)-3-(((1-methyl-1H-indazol-3-yl)methyl)amino)-4-oxo-4,6,7,8-tetrahydropyrrolo[1,2-a]pyrazine-6-carboxamide trifluoroacetate]	< 500 nM	< 500 nM
COc1cc(F)cc(CNc2ncc3n(c2=O)[C@H](C(=O)NCc2ccc(N)nc2C)CC3)c1 [Compound 171, (S)-N-((6-amino-2-methylpyridin-3-yl)methyl)-3-((3-fluoro-5-methoxybenzyl)amino)-4-oxo-4,6,7,8-tetrahydropyrrolo[1,2-a]pyrazine-6-carboxamide trifluoroacetate]	< 500 nM	< 500 nM
Cc1nc(N)ccc1CNC(=O)[C@@H]1CCc2cnc(NCc3ccc4c(cnn4C)c3)c(=O)n21 [Compound 172]	< 500 nM	< 500 nM
Cc1cc(F)cc(CNc2ncc3n(c2=O)[C@H](C(=O)NCc2ccc([C@@H](C)N)cc2)CC3)c1 [Compound 173, (S)—N-(4-((R)-1-aminoethyl)benzyl)-3-((3-fluoro-5-methylbenzyl)amino)-4-oxo-4,6,7,8-tetrahydropyrrolo[1,2-a]pyrazine-6-carboxamide trifluoroacetate]	2500 to 10000 nM	> 25000 nM
Cc1cc(F)cc(CNc2nc(-c3cnn(C)c3)c3n(c2=O)[C@H](C(=O)NCc2ccc(N)nc2C)CC3)c1 [Compound 174, (S)—N-((6-amino-2-methylpyridin-3-yl)methyl)-3-((3-fluoro-5-methylbenzyl)amino)-1-(1-methyl-1H-pyrazol-4-yl)-4-oxo-4,6,7,8-tetrahydropyrrolo[1,2-a]pyrazine-6-carboxamide trifluoroacetate]	< 500 nM	> 25000 nM
Cc1cc(F)cc(CNc2nc(-c3ccnn3C)c3n(c2=O)[C@H](C(=O)NCc2ccc(N)nc2C)CC3)c1 [Compound 175, (S)-N-((6-amino-2-methylpyridin-3-yl)methyl)-3-((3-fluoro-5-methylbenzyl)amino)-1-(1-methyl-1H-pyrazol-5-yl)-4-oxo-4,6,7,8-tetrahydropyrrolo[1,2-a]pyrazine-6-carboxamide trifluoroacetate]	< 500 nM	500 to 2500 nM
Cc1cc(F)cc(CNc2nc(C3CCCCC3)c3n(c2=O)[C@H](C(=O)NCc2ccc(N)nc2C)CC3)c1 [Compound 176, (S)—N-((6-amino-2-methylpyridin-3-yl)methyl)-1-cyclohexyl-3-((3-fluoro-5-methylbenzyl)amino)-4-oxo-4,6,7,8-tetrahydropyrrolo[1,2-a]pyrazine-6-carboxamide DI-trifluoroacetate]	< 500 nM	10000 to 25000 nM
Cc1cc(F)cc(CNc2nc(C3CCCCC3)c3n(c2=O)[C@H](C(=O)NCc2cc4cnccc4[nH]2)CC3)c1 [Compound 177, trifluoroacetate]	< 500 nM	> 25000 nM
Cc1cc(F)cc(CNc2ncc3n(c2=O)[C@H](C(=O)NCc2cc(Cl)ccc2-n2cnnn2)CC3)c1 [Compound 179, (S)—N-(5-chloro-2-(1H-tetrazol-1-yl)benzyl)-3-((3-fluoro-5-methylbenzyl)amino)-4-oxo-4,6,7,8-tetrahydropyrrolo[1,2-a]pyrazine-6-carboxamide]	< 500 nM	< 500 nM
Cc1cc(F)cc(CNc2ncc3n(c2=O)[C@H](C(=O)NCc2cccc(Cl)c2)CC3)c1 [Compound 180]	500 to 2500 nM	2500 to 10000 nM
Cc1cc(F)cc(CNc2ncc3n(c2=O)[C@H](C(=O)NCc2cnc4[nH]cc(Cl)c4c2)CC3)c1 [Compound 182, (S)—N-((3-chloro-1H-pyrrolo[2,3-b]pyridin-5-yl)methyl)-3-((3-fluoro-5-methylbenzyl)amino)-4-oxo-4,6,7,8-tetrahydropyrrolo[1,2-a]pyrazine-6-carboxamide]	< 500 nM	< 500 nM
Cc1cc(F)cc(CNc2ncc3n(c2=O)[C@H](C(=O)NCc2cnc4[nH]ccc4c2)CC3)c1 [Compound 183, (S)-N-((1H-pyrrolo[2,3-b]pyridin-5-yl)methyl)-3-((3-fluoro-5-methylbenzyl)amino)-4-oxo-4,6,7,8-tetrahydropyrrolo[1,2-a]pyrazine-6-carboxamide]	500 to 2500 nM	2500 to 10000 nM
Cc1cc(F)cc(CNc2ncc3n(c2=O)[C@H](C(=O)NCc2ccc(N)c(F)c2)CC3)c1 [Compound 184, (S)-N-(4-amino-3-fluorobenzyl)-3-((3-fluoro-5-methylbenzyl)amino)-4-oxo-4,6,7,8-tetrahydropyrrolo[1,2-a]pyrazine-6-carboxamide]	500 to 2500 nM	500 to 2500 nM
Cc1cc(F)cc(CNc2ncc3n(c2=O)[C@H](C(=O)NC(C#N)c2cccc(Cl)c2)CC3)c1 (stereo partly drawn) [Compound 185, (6S)-N-((3-chlorophenyl)(cyano)methyl)-3-((3-fluoro-5-methylbenzyl)amino)-4-oxo-4,6,7,8-tetrahydropyrrolo[1,2-a]pyrazine-6-carboxamide]	2500 to 10000 nM	2500 to 10000 nM
Cc1cc(C)cc(CNc2ncc3n(c2=O)[C@H](C(=O)N[C@@H]2CCc4nc(N)ccc42)CC3)c1 [Compound 186, (S)-N-((R)-2-amino-6,7-dihydro-5H-cyclopenta[b]pyridin-5-yl)-3-((3,5-dimethylbenzyl)amino)-4-oxo-4,6,7,8-tetrahydropyrrolo[1,2-a]pyrazine-6-carboxamide]	< 500 nM	< 500 nM
Cc1cccc(CNc2ncc3n(c2=O)[C@H](C(=O)N[C@H](C)c2ccc(N)nc2)CC3)c1 [Compound 187, (S)-N-((R)-1-(6-aminopyridin-3-yl)ethyl)-3-((3-methylbenzyl)amino)-4-oxo-4,6,7,8-tetrahydropyrrolo[1,2-a]pyrazine-6-carboxamide]	< 500 nM	2500 to 10000 nM
Cc1cc(F)cc(CNc2ncc3n(c2=O)[C@H](C(=O)NCc2ccc(N)c(Cl)c2)CC3)c1 [Compound 188, (S)-N-(4-amino-3-chlorobenzyl)-3-((3-fluoro-5-methylbenzyl)amino)-4-oxo-4,6,7,8-tetrahydropyrrolo[1,2-a]pyrazine-6-carboxamide]	< 500 nM	< 500 nM
Cc1cc(C)cc(CNc2ncc3n(c2=O)[C@H](C(=O)NCc2cnc(N)c(Cl)c2)CC3)c1 [Compound 189, (S)-N-((6-amino-5-chloropyridin-3-yl)methyl)-3-((3,5-dimethylbenzyl)amino)-4-oxo-4,6,7,8-tetrahydropyrrolo[1,2-a]pyrazine-6-carboxamide]	< 500 nM	500 to 2500 nM
Cc1cc(F)cc(CNc2ncc3n(c2=O)[C@H](C(=O)N[C@H](C)c2ccc(N)nc2)CC3)c1 [Compound 191, (S)-N-((R)-1-(6-aminopyridin-3-yl)ethyl)-3-((3-fluoro-5-methylbenzyl)amino)-4-oxo-4,6,7,8-tetrahydropyrrolo[1,2-a]pyrazine-6-carboxamide trifluoroacetate]	< 500 nM	2500 to 10000 nM
Cc1cc(F)cc(CNc2ncc3n(c2=O)[C@H](C(=O)NCc2cnc(N)c(Cl)c2)CC3)c1 [Compound 192, (S)-N-((6-amino-5-chloropyridin-3-yl)methyl)-3-((3-fluoro-5-methylbenzyl)amino)-4-oxo-4,6,7,8-tetrahydropyrrolo[1,2-a]pyrazine-6-carboxamide trifluoroacetate]	< 500 nM	500 to 2500 nM
Cc1ccc(C)c(CNc2ncc3n(c2=O)[C@H](C(=O)N[C@H](C)c2ccc(N)nc2)CC3)c1 [Compound 193, (S)-N-((R)-1-(6-aminopyridin-3-yl)ethyl)-3-((2,5-dimethylbenzyl)amino)-4-oxo-4,6,7,8-tetrahydropyrrolo[1,2-a]pyrazine-6-carboxamide trifluoroacetate]	< 500 nM	2500 to 10000 nM
CCc1cccc(CNc2ncc3n(c2=O)[C@H](C(=O)N[C@H](C)c2ccc(N)nc2)CC3)c1 [Compound 195, (S)-N-((R)-1-(6-aminopyridin-3-yl)ethyl)-3-((3-ethylbenzyl)amino)-4-oxo-4,6,7,8-tetrahydropyrrolo[1,2-a]pyrazine-6-carboxamide trifluoroacetate]	< 500 nM	2500 to 10000 nM
Cc1ccc(F)cc1CNc1ncc2n(c1=O)[C@H](C(=O)N[C@H](C)c1ccc(N)nc1)CC2 [Compound 196, (S)-N-((R)-1-(6-aminopyridin-3-yl)ethyl)-3-((5-fluoro-2-methylbenzyl)amino)-4-oxo-4,6,7,8-tetrahydropyrrolo[1,2-a]pyrazine-6-carboxamide trifluoroacetate]	< 500 nM	10000 to 25000 nM
Cc1cc(C)cc(CNc2ncc3n(c2=O)[C@H](C(=O)N[C@H](C)c2ccc(N)nc2)CC3)c1 [Compound 198, (S)-N-((R)-1-(6-aminopyridin-3-yl)ethyl)-3-((3,5-dimethylbenzyl)amino)-4-oxo-4,6,7,8-tetrahydropyrrolo[1,2-a]pyrazine-6-carboxamide trifluoroacetate]	< 500 nM	2500 to 10000 nM
Cc1ccc(F)c(CNc2ncc3n(c2=O)[C@H](C(=O)N[C@H](C)c2ccc(N)nc2)CC3)c1 [Compound 199, (S)-N-((R)-1-(6-aminopyridin-3-yl)ethyl)-3-((2-fluoro-5-methylbenzyl)amino)-4-oxo-4,6,7,8-tetrahydropyrrolo[1,2-a]pyrazine-6-carboxamide trifluoroacetate]	< 500 nM	2500 to 10000 nM
